Results published in EPA's ToxRefDB 2.

How the values were obtained:
dog [1] = settings: Chronic toxicity, beagle, Oral, Capsule, dose end: 52 week, group: systemic
rabbit = settings: Prenatal developmental toxicity study; new zealand white; Oral; Gavage/Intubation; dose end: 19 GD; group: maternal; reproductive / reproductive performance / aborted / aborted + reproductive / reproductive performance / resorptions / resorptions + systemic…
rat [2] = settings: Subchronic oral toxicity in rodents, wistar, Feed, dose end: 90 day, group: systemic, systemic / hematology / erythrocyte (rbc) count differential / erythrocyte (rbc) + systemic / hematology / hematocrit (hct) / hematocrit (…
hamster [3] = settings: Subchronic oral toxicity in rodents, golden syrian, Feed, dose end: 90 day, group: systemic, systemic / clinical chemistry / cholesterol / cholesterol + systemic / clinical chemistry / creatinine / creatinine + systemic / clinical …
hamster [4] = settings: Carcinogenicity, golden syrian, Oral, Feed, dose end: 80 week, group: systemic
rat [5] = settings: Prenatal developmental toxicity study, wistar, Oral, Gavage/Intubation, dose end: 16 GD
rat [6] = settings: Prenatal developmental toxicity study, wistar, Oral, Gavage/Intubation, dose end: 16 GD; remark: listed apart in the source
hamster [7] = settings: Subchronic oral toxicity in rodents, golden syrian, Feed, dose end: 13 week, group: systemic
rat [8] = settings: Combined chronic toxicity/carcinogenicity, wistar, Oral, Feed, dose end: 104 week, group: systemic
dog [9] = settings: Subchronic oral toxicity in nonrodent, beagle, Capsule, dose end: 90 day, group: systemic
rat [10] = settings: Chronic toxicity, sprague dawley, Oral, Gavage/Intubation, dose end: 39 week, group: systemic
dog [11] = settings: Chronic toxicity, beagle, Oral, Capsule, dose end: 40 week, group: systemic
mouse [12] = settings: Combined chronic toxicity/carcinogenicity; other; Oral; Gavage/Intubation; dose end: 10 month; group: systemic; systemic / pathology microscopic / liver / neoplastic nodule + systemic / pathology microscopic / liver / dysplasia
rat [13] = settings: Sub-acute repeat dose toxicity, other, Oral, Gavage/Intubation, dose end: 30 day
rat [14] = settings: Sub-acute repeat dose toxicity, wistar, Oral, Gavage/Intubation, dose end: 28 day
mouse [15] = settings: Carcinogenicity, b6c3f1, Oral, Feed, dose end: 2 year, group: systemic
rat [16] = settings: Subchronic oral toxicity in rodents, fischer, Feed, dose end: 13 week, group: systemic
mouse [17] = settings: Subchronic oral toxicity in rodents, b6c3f1, Feed, dose end: 13 week, group: systemic, systemic / in life observation / body weight / body weight
rat [18] = settings: Combined chronic toxicity/carcinogenicity; fischer; Oral; Feed; dose end: 2 year; group: systemic; systemic / pathology microscopic / liver / degeneration + systemic / pathology microscopic / liver / hyperplasia + systemic / pathology …
rat [19] = settings: Subchronic oral toxicity in rodents, sprague dawley, Gavage/Intubation, dose end: 6 week, group: systemic
dog [20] = settings: Subchronic oral toxicity in nonrodent, beagle, Gavage/Intubation, dose end: 6 week, group: systemic
[21] = systemic / clinical chemistry / alanine aminotransferase (alt/sgpt) / alanine aminotransferase (alt/sgpt) + systemic / organ weight / liver…
[22] = systemic / pathology microscopic / liver / adenoma + systemic / pathology microscopic / liver / hemangioma + systemic / pathology …
[23] = systemic / pathology microscopic / ovary / sex cord stromal tumor, benign
[24] = group: developmental, developmental / developmental malformation / bone / incomplete ossification + developmental / developmental malformation / bone / [other] + …
[25] = group: maternal, systemic / in life observation / body weight / body weight + systemic / in life observation / food consumption / food consumption + systemic…
[26] = group: developmental, developmental / developmental malformation / bone / bipartite ossification + developmental / developmental malformation / bone / delayed …
[27] = group: maternal, systemic / in life observation / food consumption / food consumption + systemic / in life observation / mortality / mortality + reproductive…
[28] = systemic / in life observation / body weight / body weight gain + systemic / organ weight / liver / absolute + systemic / clinical chemistry…
[29] = systemic / in life observation / body weight / body weight gain + systemic / in life observation / food consumption / food consumption + …
[30] = systemic / clinical chemistry / aminopyrine-n-demethylase / aminopyrine-n-demethylase
[31] = systemic / organ weight / [other] / absolute + systemic / organ weight / [other] / relative to body weight + systemic / pathology gross / …
[32] = systemic / in life observation / body weight / body weight gain + systemic / pathology gross / liver / fat vacuolation + systemic / …
[33] = systemic / pathology microscopic / blood / [other] + systemic / clinical chemistry / alanine aminotransferase (alt/sgpt) / alanine …
[34] = group: maternal, reproductive / reproductive performance / estrous cycle / abnormal + reproductive / reproductive performance / estrous cycle / length
[35] = group: maternal, reproductive / reproductive performance / estrous cycle / length
[36] = group: systemic, systemic / clinical chemistry / follicle stimulating hormone (fsh) / follicle stimulating hormone (fsh) + systemic / in life observation / …
[37] = group: systemic, systemic / organ weight / adrenal gland / relative to body weight + systemic / organ weight / ovary / relative to body weight + systemic / …
[38] = group: maternal, reproductive / reproductive performance / estrous cycle / abnormal
[39] = group: systemic, systemic / clinical chemistry / albumin / albumin + systemic / clinical chemistry / cholesterol / cholesterol + systemic / clinical …
[40] = group: systemic, systemic / clinical chemistry / cholesterol / cholesterol + systemic / clinical chemistry / thyroid stimulating hormone (thyrotropin) (tsh…
[41] = systemic / pathology microscopic / liver / necrosis
[42] = systemic / pathology microscopic / liver / necrosis + systemic / pathology microscopic / liver / adenoma/carcinoma combined + systemic / …
[43] = systemic / in life observation / body weight / body weight
[44] = systemic / in life observation / body weight / body weight + systemic / in life observation / food consumption / food consumption + systemic…
[45] = systemic / clinical chemistry / bilirubin / total bilirubin + systemic / hematology / neutrophils / neutrophils + systemic / in life …
[46] = systemic / in life observation / body weight / body weight + systemic / in life observation / body weight / body weight gain + systemic / in…
[47] = systemic / in life observation / clinical signs / feces, discoloration + systemic / in life observation / clinical signs / salivation + …
[48] = systemic / in life observation / clinical signs / salivation + systemic / organ weight / epididymis / absolute + systemic / organ weight / …

`CCO/N=C(\CC)C1=C(O)CC(c2c(C)cc(C)cc2C)CC1=O` (stereo not drawn) [Tralkoxydim] was tested, and the LEL (dog [1]; [21]) was 5 mg/kg/day, the LOAEL (dog [1]; [21]) was 5 mg/kg/day and the NOAEL (dog [1]; [21]) was 0.5 mg/kg/day. For the same molecule, the NEL (dog [1]; systemic / clinical chemistry / cholesterol / cholesterol + systemic / clinical chemistry / protein / protein + systemic / clinical …) was 0.5 mg/kg/day, the LEL (rabbit) was 100 mg/kg/day and the LOAEL (rabbit) was 100 mg/kg/day. The NEL (rabbit) was 20 mg/kg/day, the NOAEL (rabbit) was 20 mg/kg/day and the LEL (rat [2]) was 205 mg/kg/day. The LOAEL (rat [2]) was 205 mg/kg/day, the NEL (rat [2]) was 20.5 mg/kg/day and the NOAEL (rat [2]) was 20.5 mg/kg/day. For the same molecule, the LEL (hamster [3]) was 337 mg/kg/day, the LOAEL (hamster [3]) was 337 mg/kg/day and the NEL (hamster [3]) was 41 mg/kg/day. The NOAEL (hamster [3]) was 41 mg/kg/day, the LOAEL (hamster [4]; [22]) was over 672 mg/kg/day and the NOAEL (hamster [4]; [22]) was at least 672 mg/kg/day. It also gave an LEL (hamster [4]; [23]) of 27.8 mg/kg/day, an NEL (hamster [4]; [23]) of under 27.8 mg/kg/day and an LOAEL (rat [5]; group: developmental, developmental / developmental malformation / bone / incomplete ossification) of 30 mg/kg/day. For the same molecule, the LEL (rat [5]; group: developmental, developmental / developmental malformation / bone / incomplete ossification + developmental / developmental malformation / bone / [other]) was 30 mg/kg/day, the NEL (rat [5]; [24]) was 3 mg/kg/day and the NOAEL (rat [5]; [24]) was 3 mg/kg/day. For the same molecule, the LEL (rat [5]; [25]) was 200 mg/kg/day, the LOAEL (rat [5]; [25]) was 200 mg/kg/day and the LOAEL (rat [6]; [26]) was 30 mg/kg/day. For the same molecule, the NEL (rat [6]; [26]) was 1 mg/kg/day, the NOAEL (rat [6]; [26]) was 3 mg/kg/day and the LEL (rat [6]; group: developmental, developmental / developmental malformation / bone / delayed ossification) was 3 mg/kg/day. The LOAEL (rat [6]; group: maternal, systemic / in life observation / food consumption / food consumption + systemic / in life observation / mortality / mortality) was 200 mg/kg/day, the LEL (rat [6]; [27]) was 200 mg/kg/day and the NEL (rat [6]; [27]) was 30 mg/kg/day. For the same molecule, the NOAEL (rat [6]; [27]) was 30 mg/kg/day, the LOAEL (hamster [7]; systemic / in life observation / body weight / body weight gain + systemic / organ weight / liver / absolute) was 650 mg/kg/day and the NEL (hamster [7]; [28]) was 122 mg/kg/day. For the same molecule, the NOAEL (hamster [7]; [28]) was 328 mg/kg/day, the LEL (hamster [7]; systemic / pathology microscopic / liver / proliferation) was 328 mg/kg/day and the LOAEL (rat [8]; [29]) was 118 mg/kg/day. For the same molecule, the NEL (rat [8]; [29]) was 2.3 mg/kg/day, the NOAEL (rat [8]; [29]) was 23.1 mg/kg/day and the LEL (rat [8]; systemic / pathology microscopic / pituitary gland / adenoma) was 23.1 mg/kg/day. It also gave an LEL (dog [9]; [30]) of 0.5 mg/kg/day, an LOAEL (dog [9]; [30]) of 5 mg/kg/day and an NEL (dog [9]; [30]) of under 0.5 mg/kg/day. For the same molecule, the NOAEL (dog [9]; systemic / clinical chemistry / aminopyrine-n-demethylase / aminopyrine-n-demethylase + systemic / clinical chemistry / albumin / albumin + …) was 0.5 mg/kg/day.
With `C[C@]12CCC(=O)C=C1CC[C@@H]1[C@@H]2CC[C@@]2(C)[C@H]1CC[C@]2(C)O` [17-Methyltestosterone] the LOAEL (rat [10]; [31]) was over 40 mg/kg/day, the NEL (rat [10]; [31]) was 2 mg/kg/day and the NOAEL (rat [10]; [31]) was at least 40 mg/kg/day. It also gave an LEL (rat [10]; systemic / pathology gross / testes / reduced size + systemic / in life observation / body weight / body weight gain + systemic / in life …) of 10 mg/kg/day, an LOAEL (dog [11]; [32]) of over 6 mg/kg/day and an NOAEL (dog [11]; [32]) of at least 6 mg/kg/day. It also gave an LEL (dog [11]; [33]) of 2 mg/kg/day, an NEL (dog [11]; [33]) of under 2 mg/kg/day and an LEL (mouse [12]) of 5 mg/kg/day. The LOAEL (mouse [12]) was over 5 mg/kg/day, the NEL (mouse [12]) was under 5 mg/kg/day and the NOAEL (mouse [12]) was at least 5 mg/kg/day. The LOAEL (rat [13]; [34]) was over 80 mg/kg/day, the NOAEL (rat [13]; [34]) was at least 80 mg/kg/day and the LEL (rat [13]; [35]) was 5 mg/kg/day. It also gave an NEL (rat [13]; [35]) of under 5 mg/kg/day, an LOAEL (rat [13]; [36]) of over 80 mg/kg/day and an NOAEL (rat [13]; [36]) of at least 80 mg/kg/day. It also gave an LEL (rat [13]; [37]) of 5 mg/kg/day, an NEL (rat [13]; [37]) of under 5 mg/kg/day and an LEL (rat [14]; [38]) of 100 mg/kg/day. The LOAEL (rat [14]; [38]) was over 600 mg/kg/day, the NEL (rat [14]; [38]) was 10 mg/kg/day and the NOAEL (rat [14]; [38]) was at least 600 mg/kg/day. It also gave an LOAEL (rat [14]; [39]) of over 200 mg/kg/day, an NOAEL (rat [14]; [39]) of at least 200 mg/kg/day and an LEL (rat [14]; [40]) of 10 mg/kg/day. For the same molecule, the NEL (rat [14]; [40]) was under 10 mg/kg/day.
Molecule `O=C(O)C1C(C(=O)O)C2(Cl)C(Cl)=C(Cl)C1(Cl)C2(Cl)Cl` (stereo not drawn) [Chlorendic acid] has an LOAEL (mouse [15]; [41]) of 89 mg/kg/day, an NOAEL (mouse [15]; [41]) of under 89 mg/kg/day and an LEL (mouse [15]; [42]) of 89 mg/kg/day. The NEL (mouse [15]; [42]) was under 89 mg/kg/day, the LEL (rat [16]; [43]) was 63 mg/kg/day and the LOAEL (rat [16]; [43]) was 63 mg/kg/day. It also gave an NEL (rat [16]; [44]) of 31 mg/kg/day, an NOAEL (rat [16]; [44]) of 31 mg/kg/day and an LEL (mouse [17]) of 188 mg/kg/day. For the same molecule, the LOAEL (mouse [17]) was 188 mg/kg/day, the NEL (mouse [17]) was under 188 mg/kg/day and the NOAEL (mouse [17]) was under 188 mg/kg/day. It also gave an LEL (rat [18]) of 27 mg/kg/day, an LOAEL (rat [18]) of 27 mg/kg/day and an NEL (rat [18]) of under 27 mg/kg/day. The NOAEL (rat [18]) was under 27 mg/kg/day.
`N#Cc1ccc(N(CC(N)=O)CC(F)(F)F)cc1C(F)(F)F` gave an LOAEL (rat [19]; [45]) of over 30 mg/kg/day, an NOAEL (rat [19]; [45]) of at least 30 mg/kg/day and an LEL (rat [19]; [46]) of 1 mg/kg/day. It also gave an NEL (rat [19]; [46]) of under 1 mg/kg/day, an LOAEL (dog [20]; [47]) of over 3 mg/kg/day and an NOAEL (dog [20]; [47]) of at least 3 mg/kg/day. For the same molecule, the LEL (dog [20]; [48]) was 0.3 mg/kg/day and the NEL (dog [20]; [48]) was under 0.3 mg/kg/day.
